Consider one compound from PMC10671052, “Naphthyl-Substituted Indole and Pyrrole Carboxylic Acids as Effective Antibiotic Potentiators—Inhibitors of Bacterial Cystathionine γ-Lyase” (International Journal of Molecular Sciences, 2023).

Each structure is given as a SMILES string.

Data set [1] in a line: in vitro. The format is in vitro ADME. Conditions: human, plasma, pH 7.4, Fraction bound fb. The procedure:
Plasma protein binding was assessed using RED device inserts with built-in cellulose acetate dialysis membranes (molecular weight cutoff: 8 kDa). The final concentration of the test compound in human plasma was 5 μM. The samples were prepared by placing 300 μL of human plasma into the plasma compartment of the RED device and 500 μL of phosphate-buffered saline (pH 7.4) into the buffer compartment. The RED device was fixed to a shaker, placed in a CO2 (5%) incubator, and incubated for 6 h at 37 °C. After an equilibration step, 100 μL aliquots were taken from each compartment; 100 μL of plasma was added to the buffer compartment aliquot and 100 μL of buffer was added to the plasma compartment aliquot. After mixing, 600 μL of acetonitrile containing an internal standard was added. […] All compounds were tested in duplicate. Fraction bound fb was determined via the following equation: fb (%) = [1 − (Cb/Cp)] × 100, where Cb is the concentration of an analyte in the buffer compartment (μM), and Cp is the concentration of the analyte in the plasma compartment (μM).

Data set [2] deals with S. aureus cystathionine-γ-lyase (bCSE) (Staphylococcus aureus, UniProt A0A0H3K724). The data set can be described thus: IC50 assay: inhibition of H2S production by purified bCSE, WSP5 fluorescent probe. It is filed as biochemical. The gist of the method: (§1)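 Purified recombinant enzyme (0.02 μM; E. coli-expressed) preincubated 40 min at 30 °C with inhibitor in 50 mM sodium phosphate pH 8.0, 10 μM PLP, 0.1% Tween 20 and 1.2 μM WSP-5. Started with 100 μM L-cysteine; H2S fluorescence (ex 500/em 530 nm) followed 12 h. IC50 from four-parameter fit, mean of ≥2 experiments.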

Data set [3] deals with T1, human cystathionine-γ-lyase (hCSE) (Homo sapiens, UniProt P32929).
T1 construct: His6-TEV (N, cleaved yes); host or cells: E. coli
Briefly: IC50 assay: inhibition of H2S production by purified hCSE, WSP5 fluorescent probe. It is filed as biochemical. The conditions noted are these: purified hCSE 0.02 μM, 100 μM L-cysteine, WSP5 probe, mean ± SD; read-out: IC50 biochemical assay hCSE. A digest of the protocol: as §1

Data set [4] can be described thus: in vitro. As for the experimental part:
A test compound (final concentration 10 μM) was incubated at 37 °C in SGF, SIF, or human plasma for 2, 2, or 4 h, respectively. 100 μL aliquots were taken from each sample and 300 μL of acetonitrile containing an internal standard was added. […] All compounds were tested in triplicate. The percentage of a remaining compound after incubation was determined based on the chromatographic peak area of the sample after incubation and that of time zero (freshly prepared and injected) sample.

In data set [5] the test system is P. aeruginosa GIMC5016:PA1840/36/2015. The data set can be described thus: MIC of antibiotics alone and with potentiators, clinical isolate.
Procedure: (§2) Overnight (ON) culture of a specific strain was grown in the liquid Luria–Bertani nutrient medium (LB broth, BD Difco) for 18 h at 37 °C, with agitation at 180 rpm using an Innova 44R orbital shaker (Eppendorf, Hamburg, Germany). After a certain period, 50 µL of the ON culture was transferred into 5 mL of the LB medium and grown for 3 h at 37 °C with agitation. Growth in the liquid medium was assessed by means of turbidity of the suspension, measured using a Densi-La-Meter II densitometer (Erba Lachema s.r.o., Brno, Czech Republic). Then, the bacterial suspension was diluted to the concentration 10^6 cells/mL with sterile LB and used as a seed culture [38, 39].
(§3) For the assessment of MICs, 96-well microtiter plates were utilized at 200 µL of a medium per well. Each well was filled with 100 µL of the seed culture. After that, 10 µL of a solution of each tested synthetic compound (potentiators) was added into each experimental well. Finally, 90 µL of twofold serial dilutions of an antibiotic in a sterile LB was added into individual wells.
(§4) As a positive control, we set up wells with 100 µL of the bacterial culture and 100 µL of the sterile LB medium. […] Negative-control wells contained 200 µL of the sterile medium. The plates were incubated in a thermostat for 18–20 h at 37 °C. The bacterial growth was assessed as optical density at 600 nm on a CLARIOstar microplate reader (BMG LABTECH GmbH, Ortenberg, Germany)).
The subject of data set [6] is A. baumannii GIMC5509:ABT-52Ts19. The description is as above.
Procedure: as §2, §3, §4
[7] abbreviates: P. aeruginosa GIMC5016:PA1840/36/2015, potentiator 50 µg/mL.
The mark [8] stands for this setting: A. baumannii GIMC5509:ABT-52Ts19, potentiator 50 µg/mL.

S. aureus cystathionine-γ-lyase (bCSE), sequence (A0A0H3K724 entry or part of it): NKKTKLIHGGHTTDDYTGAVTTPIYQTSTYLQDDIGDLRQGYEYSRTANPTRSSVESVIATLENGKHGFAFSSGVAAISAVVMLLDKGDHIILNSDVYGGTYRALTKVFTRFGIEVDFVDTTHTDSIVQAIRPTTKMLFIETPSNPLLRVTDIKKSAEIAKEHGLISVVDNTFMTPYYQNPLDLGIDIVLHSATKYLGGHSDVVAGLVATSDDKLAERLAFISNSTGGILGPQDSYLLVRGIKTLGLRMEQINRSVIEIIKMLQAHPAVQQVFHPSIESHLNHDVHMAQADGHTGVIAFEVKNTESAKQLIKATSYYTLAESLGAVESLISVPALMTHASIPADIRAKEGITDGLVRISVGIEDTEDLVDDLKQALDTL
T1 sequence (P32929 whole entry): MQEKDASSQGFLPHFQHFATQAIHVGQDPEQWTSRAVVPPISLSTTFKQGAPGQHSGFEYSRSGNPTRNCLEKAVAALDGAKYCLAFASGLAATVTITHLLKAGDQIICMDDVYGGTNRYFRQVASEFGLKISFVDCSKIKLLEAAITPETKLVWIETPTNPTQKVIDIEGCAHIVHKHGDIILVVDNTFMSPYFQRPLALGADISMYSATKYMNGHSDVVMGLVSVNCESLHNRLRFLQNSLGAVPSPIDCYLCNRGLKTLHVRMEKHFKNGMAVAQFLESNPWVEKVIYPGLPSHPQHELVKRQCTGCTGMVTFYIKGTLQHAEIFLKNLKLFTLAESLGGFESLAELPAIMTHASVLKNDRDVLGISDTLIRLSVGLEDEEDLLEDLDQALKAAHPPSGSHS

On to `O=C(O)c1cc2ccccc2n1Cc1cccc2ccccc12` [Compound 2a], for which the fraction unbound at 6 h, 5 μM in the data set “in vitro [1]” is less than 0.01. Moreover, the IC50 in data set [2] (IC50 (uM), bCSE enzymatic IC50, rounded, repeated in Table S13) amounted to 65 µM; in data set [2] (IC50 (uM), bCSE enzymatic IC50, rounded, repeated in Table S14) it was 65 µM; in data set [2] (IC50 (uM), bCSE enzymatic IC50, rounded, repeated in Table S15) it was 65 µM; in data set [2] (IC50 biochemical assay bCSE, purified bCSE 0.02 μM, 100 μM L-cysteine, WSP5 probe, mean ± SD), 64.6 ± 3.1 µM; in data set [3], 251 ± 16.6 µM. In addition, the “Stability in human plasma, % Remaining at 4 h” value in the data set “in vitro [4]” (4 h, 10 μM) was determined as 97.6%. In “in vitro [4]” (human, plasma, Stability in human plasma, % Remaining at 4 h), the fraction remaining at 4 h, 10 μM turned out to be 97.6 ± 7.95%. In addition, the “Stability in SGF, % Remaining at 2 h” value in “in vitro [4]” (simulated gi fluid, 2 h, 10 μM) is 91.9%. Further, the “Stability in SIF, % Remaining at 2 h” value in the data set “in vitro [4]” (simulated gi fluid, 2 h, 10 μM) is recorded as 104.1%. The share remaining at 2 h, 10 μM in “in vitro [4]” (simulated gi fluid, Stability in SGF) was 91.9 ± 2.68%; in the data set “in vitro [4]” (simulated gi fluid, Stability in SIF) it was 104 ± 14.2%. In addition, the “MIC of Tacillin in combination with potentiator” value was 32 µg/mL in data set [5] (P. aeruginosa GIMC5016:PA1840/36/2015, piperacillin + tazobactam, potentiator 50 µg/mL) and 64 µg/mL in data set [6] (A. baumannii GIMC5509:ABT-52Ts19, piperacillin + tazobactam, potentiator 50 µg/mL). Besides, the “MIC of Cefepim in combination with potentiator” value in data set [5] (setting [7]) came out at 32 µg/mL; in data set [6] (setting [8]), 256 µg/mL. Moreover, in data set [5] (setting [7]), the “MIC of Gentamicin in combination with potentiator” value is more than 512 µg/mL. In addition, the “MIC of Meropenem in combination with potentiator” value in data set [5] (setting [7]) was 8 µg/mL; in data set [6] (setting [8]) it was 32 µg/mL.
